Paper PMC7856178 (Archives of biochemistry and biophysics, 2020)
pKd: −log10 of the molar value. “And” between values parts separate entries of the source, which are not always exact repeats. Equal entries are not always repeated. Where two headings read alike, the source gives them in different places.

Assays:
[1] = target: T1, CYP3A4 (Homo sapiens, UniProt P08684); assay: Rate of midazolam hydroxylation by pooled HLM; details: 100 μM substrate; for Turnover rate (per metabolizing P450 enzyme): per CYP3A4
Target sequence in this assay (P08684 whole entry): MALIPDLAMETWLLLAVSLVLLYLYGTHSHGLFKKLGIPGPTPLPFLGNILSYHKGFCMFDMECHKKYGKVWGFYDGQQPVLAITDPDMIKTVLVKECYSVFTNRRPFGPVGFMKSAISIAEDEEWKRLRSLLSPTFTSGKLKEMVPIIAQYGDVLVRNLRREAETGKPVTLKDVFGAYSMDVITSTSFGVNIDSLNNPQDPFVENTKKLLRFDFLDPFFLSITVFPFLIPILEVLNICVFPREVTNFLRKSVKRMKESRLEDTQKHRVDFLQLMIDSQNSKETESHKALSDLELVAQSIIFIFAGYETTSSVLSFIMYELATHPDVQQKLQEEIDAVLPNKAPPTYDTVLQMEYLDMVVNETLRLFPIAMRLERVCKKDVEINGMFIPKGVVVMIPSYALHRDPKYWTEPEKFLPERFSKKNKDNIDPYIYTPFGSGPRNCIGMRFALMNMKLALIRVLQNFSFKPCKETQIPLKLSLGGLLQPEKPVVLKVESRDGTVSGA

[2] = system: CYP3A5; details: cited from earlier work
[3] = system: CYP2E1; details: cited from earlier work
[4] = system: CYP1A2; details: cited from earlier work
[5] = target: T1, CYP3A4; assay: Fluorimetric assay of BQ debenzylation in intact and CYP2E1-enriched HLM
Target sequence in this assay (P08684 whole entry): as above

[6] = system: CYP3A4; details: prolonged exposure; HepG2 cells; cited from earlier work
[7] = system: CYP3A4; details: prolonged exposure; human hepatocytes; cited from earlier work
[8] = target: T1, CYP3A4; format: binding; details: SS(3A4) in the presence of 25 μM ANF
Target sequence in this assay (P08684 2-503 limits assumed): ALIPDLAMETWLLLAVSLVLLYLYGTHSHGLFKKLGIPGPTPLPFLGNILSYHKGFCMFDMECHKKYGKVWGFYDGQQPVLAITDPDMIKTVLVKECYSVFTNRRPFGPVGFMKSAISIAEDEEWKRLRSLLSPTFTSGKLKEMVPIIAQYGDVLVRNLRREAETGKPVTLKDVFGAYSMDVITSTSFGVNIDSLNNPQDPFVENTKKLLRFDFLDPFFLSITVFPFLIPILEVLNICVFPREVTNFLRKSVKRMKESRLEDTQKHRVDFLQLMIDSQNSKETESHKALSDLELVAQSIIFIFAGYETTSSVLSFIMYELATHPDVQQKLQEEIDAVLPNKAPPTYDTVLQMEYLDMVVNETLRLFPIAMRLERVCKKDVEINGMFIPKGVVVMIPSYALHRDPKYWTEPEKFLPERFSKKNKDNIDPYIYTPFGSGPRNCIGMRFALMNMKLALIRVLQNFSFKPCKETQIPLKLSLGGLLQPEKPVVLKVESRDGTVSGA

[9] = target: CYP2E1 (Homo sapiens, UniProt P05181); format: binding
[10] = in vivo; cited from earlier work
[11] = system: CYP2C19; details: cited from earlier work
[12] = 25 μM ANF, all four HLM samples

Structure (SMILES): Cc1ncc2n1-c1ccc(Cl)cc1C(c1ccccc1F)=NC2 [Midazolam]
- Turnover rate (per CPR) ([1]; HLM-A): 11.2 ± 5.3 min⁻¹
- Turnover rate (per metabolizing P450 enzyme) ([1]; HLM-A): 6.8 ± 3.2 min⁻¹
- Turnover rate (per CPR) ([1]; HLM-N2): 7.3 ± 2.1 min⁻¹
- Turnover rate (per metabolizing P450 enzyme) ([1]; HLM-N2): 3.3 ± 0.9 min⁻¹
- Turnover rate (per CPR) ([1]; HLM-N3): 8.2 ± 4.0 min⁻¹
- Turnover rate (per metabolizing P450 enzyme) ([1]; HLM-N3): 3.1 ± 1.5 min⁻¹

Structure (SMILES): c1ccc(COc2ccc3cccnc3c2)cc1 [BQ, 7-benzyloxyquinoline]
- Turnover number with BQ, times lower than that of CYP3A4 [2]: 4.3 times
- Ability of CYP2E1 to metabolize BQ [3]: lacks any potential to metabolize this substrate
- Turnover number with BQ, times lower than that of CYP3A4 [4]: 8.5 times
- N (Hill coefficient) ([5]; HLM-A+2E1 (1:1 CYP2E1-enriched), +25 μM ANF): 0.85 ± 0.26 (0.03)
- N (Hill coefficient) ([5]; HLM-A+2E1 (1:1 CYP2E1-enriched), no effector): 1.47 ± 0.30 (0.30)
- N (Hill coefficient) ([5]; HLM-A, +25 μM ANF): 0.99 ± 0.20 (0.03)
- N (Hill coefficient) ([5]; HLM-A, no effector): 1.02 ± 0.15
- N (Hill coefficient) ([5]; HLM-N1+2E1 (1:1 CYP2E1-enriched), +25 μM ANF): 0.87 ± 0.16 (0.02)
- N (Hill coefficient) ([5]; HLM-N1+2E1 (1:1 CYP2E1-enriched), no effector): 1.26 ± 0.12 (0.01)
- N (Hill coefficient) ([5]; HLM-N1, +25 μM ANF): 0.83 ± 0.12 (<10^−2)
- N (Hill coefficient) ([5]; HLM-N1, no effector): 2.24 ± 0.37
- N (Hill coefficient) ([5]; HLM-N2+2E1 (1:1 CYP2E1-enriched), +25 μM ANF): 0.86 ± 0.08 (<10^−2)
- N (Hill coefficient) ([5]; HLM-N2+2E1 (1:1 CYP2E1-enriched), no effector): 1.13 ± 0.03 (<10^−6)
- N (Hill coefficient) ([5]; HLM-N2, +25 μM ANF): 1.02 ± 0.37 (0.01)
- N (Hill coefficient) ([5]; HLM-N2, no effector): 1.92 ± 0.02
- Vmax, times lower than that of HLM-A ([5]; HLM-N2, no effector): 2.2 times
- N (Hill coefficient) ([5]; HLM-N3+2E1 (1:1 CYP2E1-enriched), +25 μM ANF): 1.02 ± 0.24 (0.07)
- N (Hill coefficient) ([5]; HLM-N3+2E1 (1:1 CYP2E1-enriched), no effector): 1.28 ± 0.09 (0.01)
- N (Hill coefficient) ([5]; HLM-N3, +25 μM ANF): 1.22 ± 0.30 (0.03)
- N (Hill coefficient) ([5]; HLM-N3, no effector): 2.09 ± 0.44
- Vmax, times lower than that of HLM-A ([5]; HLM-N3, no effector): 1.4 times
- Hill coefficient ([5]; all three samples of HLM-N, no effector): 1.9 – 2.2
- Vmax of HLM-A relative to HLM-N1 ([5]; no effector): over six times higher

Structure (SMILES): CCO [ethanol]
- Concentration of ethanol giving a noticeable elevation in the CYP3A4 content [6]: ≥ 50000 µM
- Concentration of ethanol giving a noticeable elevation in the CYP3A4 content [7]: ≥ 50000 µM

Structure (SMILES): O=c1cc(-c2ccccc2)oc2c1ccc1ccccc12 [ANF, 7,8-benzoflavone]
- (Lipid/CYP2E1)50% ([8]; calculated from [CYP2E1]50%): 604 and 604 ± 62
- FRET Efficiency ([8]; from Rmax by Eq. 4): 84 ± 20%
- Effect of ANF on Vmax of BQ metabolism ([5]; 25 μM ANF, HLM-A): no statistically significant effect
- Effect of ANF on the maximal rate of BQ metabolism ([5]; 25 μM ANF, HLM-N1): increased the maximal rate of reaction almost two times
- Effect of ANF on Vmax of BQ metabolism ([5]; 25 μM ANF, HLM-N2): no statistically significant effect
- Effect of ANF on the maximal rate of BQ metabolism ([5]; 25 μM ANF, HLM-N3): over two-fold inhibition
- Effect of ANF on S50 values of BQ [5, 12]: considerably decreased the S50 values
- Effect of ANF on homotropic cooperativity observed with BQ [5, 12]: eliminated homotropic cooperativity

Structure (SMILES): O[C@@H](CS)[C@@H](O)CS (racemic) [DTT, dithiothreitol]
- pKd [9]: 1.98

Structure (SMILES): C[C@H]1c2cccc(O)c2C(O)=C2C(=O)[C@]3(O)C(O)=C(C(N)=O)C(=O)[C@@H](N(C)C)[C@@H]3[C@@H](O)[C@@H]21 [doxycyclin]
- Rate of metabolism under the influence of chronic alcohol exposure [10]: increased rate of metabolism

Structure (SMILES): CN(C)CCC=C1c2ccccc2CCc2ccccc21 [Amitriptyline]
- Km [11]: ~14 µM
